Microbes eliminated data for 1 compound are collected here from patent US11007554B2, “Method, system and device for reducing microbial concentration and/or biofilm formation” (EMODs Technology, L.L.C., priority 2018, dated 2021).

Read-outs that look alike come from different tables or passages of the source.

The subject of the experiment is microbes.

For `OO` [hydrogen peroxide], the microbes eliminated (3% hydrogen peroxide together with radiation of a wavelength between 300 and 600 nanometers) was 99.999%; the microbes eliminated result (3% solution of hydrogen peroxide alone) is given as “approximately 30%”.
